Reference: US20110172107A1, “ASSAY FOR IDENTIFYING AGENTS THAT MODULATE EPIGENETIC SILENCING, AND AGENTS IDENTIFIED THEREBY” (FOX CHASE CANCER CENTER, priority 2008, published 2011)

Experiments:
[1] = test system: silent GFP reporter in HeLa TI-C cell clones; experiment: GFP reactivation in TI-C silent cell clones (FACS); assay type: cell-based, human; details: TSA treatment, FACS after 24 hours, vs DMSO control
Description: Cells. HeLa cell populations containing silent GFP genes, as described by Katz et al., 2007, J. Virol. 81:2592-2604, were utilized. TI-C cell clones were isolated by cell sorting as described by Katz et al., 2007, J. Virol. 81:2592-2604.
Analysis of GFP expression. GFP expression was quantitated by FACScan as described previously (Greger et al., 2005, J. Virol. 79:4610-4618; Katz et al., 2007, J. Virol. 81:2592-2604; Poleshko et al., 2008, J. Virol. 82:2313-2323).
Evidence for position-independent roles for HDAC1 and Daxx in retroviral reporter gene silencing. To determine if the integration sites of the retroviral DNA are determinants for the participation of specific host factors that control epigenetic silencing, a series of TI-C cell clones was examined. These clones were derived from a pool of cells in which the average GFP copy number was ca. 1 as measured by quantitative real-time PCR (Katz et al., 2007, J. Virol. 81:2592-2604; Poleshko et al., 2008, J. Virol. 82:2313-2323). […] As with the TI-C cell population, transfection with the HDAC1 siRNA pool phenocopied the TSA treatment (compare FIGS. 4A and B). Based on analyses of these clones, it was concluded that HDAC1 and, in most cases, Daxx are required for the maintenance of silencing at independent loci, but the integration site may modulate the extent of reactivation.

[2] = target: heterochromatin protein 1 gamma (HP1γ) (Homo sapiens (Human)) (UniProt Q13185); experiment: cell-based or functional assay
Chain of UniProt Q13185 (Q13185 whole entry): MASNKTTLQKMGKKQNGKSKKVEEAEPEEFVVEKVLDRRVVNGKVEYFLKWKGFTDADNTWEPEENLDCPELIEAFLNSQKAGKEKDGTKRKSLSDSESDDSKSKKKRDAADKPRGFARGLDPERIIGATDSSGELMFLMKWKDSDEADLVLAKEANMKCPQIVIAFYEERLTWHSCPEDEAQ

Molecule | GFP reactivation in TI-C cell clones [1] | GFP-positive cells at 5 days postinfection (FACS) (% GFP-positive cells) [2]
CC(/C=C/C(=O)NO)=C\[C@@H](C)C(=O)c1ccc(N(C)C)cc1 [TSA, trichostatin A] | induced GFP reactivation, but to various degrees | –
dominant negative form of HP1 (dnHP1) (from UniProt P83916 104-185) | – | 24
